# Data published in US7417038B1, “Methods of treating cachexia” (Imperial Innovations Limited, priority 1998, dated 2008).
# Where a name gives a salt, the structure may show the parent alone.
# How the values were obtained:
# [1] = Treatment of a hypertensive patient with Atenolol (with co-medication): body weight; format: in vivo, human; conditions: baseline 85.6 kg, Atenolol 50 mgs OD with Losartan, Bendrofluazide, Doxazosin, 11 months
# Description: A hypertensive patient presented weighing 85.6 kg. They were treated with Losartan 50 mgs OD, Bendrofluazide 2-5 mgs OD, Doxazosin 1 mg OD and Atenolol, a β-blocker, 50 mgs OD. In 11 months their weight increased to 94.3 kg.
# ETA receptor = target: T1, ETA receptor (Homo sapiens, UniProt P25101); conditions: cited from earlier work; for selectivity for the ETA receptor versus the ETB receptor: ETA vs ETB
# T1 sequence (P25101 21-427): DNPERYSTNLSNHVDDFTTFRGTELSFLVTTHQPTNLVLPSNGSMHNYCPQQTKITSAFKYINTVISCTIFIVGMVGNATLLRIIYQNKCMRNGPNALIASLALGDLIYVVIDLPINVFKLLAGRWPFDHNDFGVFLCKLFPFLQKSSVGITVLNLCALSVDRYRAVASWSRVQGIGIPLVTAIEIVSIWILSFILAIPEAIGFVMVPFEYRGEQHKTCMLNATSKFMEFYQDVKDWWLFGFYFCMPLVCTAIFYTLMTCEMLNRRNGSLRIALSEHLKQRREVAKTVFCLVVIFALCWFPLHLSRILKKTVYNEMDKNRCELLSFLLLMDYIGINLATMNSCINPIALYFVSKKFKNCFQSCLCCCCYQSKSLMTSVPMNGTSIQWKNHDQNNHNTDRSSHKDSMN
# [2] = target: T2, human cloned ETA receptors (Homo sapiens, UniProt P25101); conditions: cited from earlier work
# T2 sequence (P25101 21-427): T1 sequence (P25101 21-427)
# [3] = Carvedilol treatment of a cachectic CHF patient: body weight, body composition (bioelectrical impedance), clinical status; format: in vivo, human; conditions: one cachectic CHF patient
# [4] = Carvedilol treatment of a cachectic CHF patient: symptom limited treadmill exercise testing; format: in vivo, human; conditions: one cachectic CHF patient, Carvedilol 3.125 mg to 12.5 mg twice daily, follow-up vs baseline
# [5] = Spironolactone treatment of a cachectic CHF patient: body weight and clinical status; conditions: one cachectic CHF patient, spironolactone 25 mg once daily
# [6] = Spironolactone treatment of a cachectic CHF patient: symptom limited treadmill exercise testing; format: in vivo, human; conditions: one cachectic CHF patient, spironolactone 25 mg once daily, follow-up vs baseline
# Description: The patient had good compliance in taking spironolactone.
# Treadmill exercise testing: The patient underwent symptom limited treadmill exercise testing. A standard Bruce protocol was used. The patient breathed through a one-way valve connected to a commercially available respiratory gas analyser (MedGraphics Inc., USA) and minute ventilation and oxygen consumption were recorded on line every 15 seconds. The patient was encouraged to exercise to exhaustion. Exercise time and oxygen consumption at peak exercise adjusted for total body weight (peak VO2 in ml/kg/min) was measured as an index of the exercise capacity. One day prior to the intended baseline exercise test an additional exercise test was performed to familarise the patient with the test procedure.
# [7] = Carvedilol, without development of oedema
# [8] = without development of any oedema
smiles,measurement,setting,value
CC(C)NCC(O)COc1ccc(CC(N)=O)cc1 (centres unmarked) [Atenolol],body weight after treatment,[1],94.3 kg
CCCCN(CCCC)C(=O)CN1C[C@H](c2cc(OC)c3c(c2)OCO3)[C@@H](C(=O)O)[C@@H]1CC(C)(C)CCC [A-216546],selectivity for the ETA receptor versus the ETB receptor,ETA receptor,"> 25,000 fold"
"COc1ccccc1Oc1c(NS(=O)(=O)c2ccc(C)cn2)nc(-c2ccnc(-c3nnn[nH]3)c2)nc1OCCO [Ro 61-1790, 5-methyl-pyridine-2-sulfonic acid 6-(2-hydroxy-ethoxy)-5-(2-methoxy-phenoxy)-2-(2-1H-tetrazol-5-yl-+++pyridin-4-yl)-pyrimidin-4-ylamide]",selectivity for the ETA receptor versus the ETB receptor,ETA receptor,approximately 1000 fold
same,affinity to ETA receptor,ETA receptor; competitive ET antagonist,subnanomolar range
"Cc1ccc(-c2c(NS(=O)(=O)c3ccc(C(C)(C)CO)cc3)ncnc2OCCOc2ncc(Br)cn2)cc1 [T-0201, N-(6-(2-(5-bromopyrimidin-4-yl)-4-(2-hydroxy-1,1-dimethylethyl)-benzensulfonamidesodium salt sesquihydrate]",effect on specific binding of [125I]-ET-1,[2],competitively antagonized the specific binding
COc1ccccc1OCCNCC(O)COc1cccc2[nH]c3ccccc3c12 (centres unmarked) [Carvedilol],tolerability of the treatment,[3]; Carvedilol 3.125 mg to 12.5 mg twice daily,tolerated the treatment well
same,increase in lean muscle tissue,"[3]; Carvedilol 3.125 mg to 12.5 mg twice daily, bioelectrical impedance",1.8 kg
same,body weight increase,[3]; [7],2.1 kg
same,body weight increase (percent),[3]; [7],3.1%
same,VE/VCO2-slope decrease,[4],15.5%
same,peak VO2 increase,[4],15%
CC(=O)S[C@@H]1CC2=CC(=O)CC[C@]2(C)[C@H]2CC[C@@]3(C)[C@@H](CC[C@@]34CCC(=O)O4)[C@H]12 [spironolactone],New York Heart Association functional class (NYHA class) change,[5],class III symptoms to class II symptoms
same,side effects of the treatment,[5],no side effects
same,body weight increase,[5]; [8],1.5 kg
same,body weight increase (percent),[5]; [8],2%
same,exercise time increase,[6],53%
same,peak VO2 increase,[6],79%
